Test results published in patent US20010033847A1, “DERMATOLOGIC PREPARATION” (priority 1996, published 2001).

System: affected regions of atopic patients
Experiment: itch and area of inflammation after 1 week of application in atopic patients
Assay type: in vivo, human
Details: number of 3 atopic patients; daily application for 1 week
Experimental: The dermatologic preparations of Examples 1 to 3 and the dermatologic preparations for comparison of Reference Examples 1 to 3 were evaluated for itch and the area of inflammation 1 week after application.
To the affected regions of 3 atopic patients (1 adult, 1 adult, and 1 child), was applied an adequate amount of each oil produced in Examples 1 to 3 and Reference Examples 1 to 3 after bathing every day. After application for 1 week, itch and the inflammatory area were evaluated. During the treatment period, the drugs used previously were continued. In the child who could not describe itch, itch was evaluated based on the behavior of scratching at the affected region.

## 1,3-dioctanoyl-2-eicosapentaenoyl glycerol [Example 2]
  inflammatory area: no change: 0 patients
  inflammatory area: reduced: 3 patients
  inflammatory area: widened: 0 patients
  itch: improved: 3 patients
  itch: no change: 0 patients
  itch: worsened: 0 patients
